Article PMC4648803 (Purinergic Signalling, 2015)
Where “and” joins values, the source holds several entries; their conditions need not be identical. Equal entries are not always repeated.

Tests used:
hA1AR [1] = target: T1, hA1AR (Homo sapiens, UniProt P30542); set-up: expressed in transfected cells; host or cells: CHO cells stably expressing hA1AR (membrane preparation); gift from Prof; S. Hill, University of Nottingham; method as in PMID 23093571; settings: competition association, apparent value; cited from earlier work
T1 sequence (P30542 1-326): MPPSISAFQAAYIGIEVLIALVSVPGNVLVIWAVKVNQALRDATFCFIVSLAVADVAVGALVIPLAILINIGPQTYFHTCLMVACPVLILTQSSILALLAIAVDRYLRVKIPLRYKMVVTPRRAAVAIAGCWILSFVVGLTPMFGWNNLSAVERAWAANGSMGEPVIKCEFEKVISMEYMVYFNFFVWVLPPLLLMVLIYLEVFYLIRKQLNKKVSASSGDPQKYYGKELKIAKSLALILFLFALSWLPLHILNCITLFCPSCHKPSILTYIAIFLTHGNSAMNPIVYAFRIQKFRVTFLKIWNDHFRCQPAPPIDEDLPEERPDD

hA1AR [2] = target: T1, hA1AR; assay: MS binding competition association assay (marker ligand DPCPX); set-up: expressed in transfected cells; host or cells: CHO cells stably expressing hA1AR (membrane preparation); gift from Prof; S. Hill, University of Nottingham; settings: for shape of competition association curve: 6 nM DPCPX, 250 nM competing ligand
Method: . […] Non-specific binding was determined as described under “MS binding displacement assays.”

hA2AAR [3] = target: T2, hA2AAR (Homo sapiens, UniProt P29274); assay: Radioligand binding competition association assay; settings: newly acquired
T2 construct: expressed in transfected cells; host or cells: HEK293 cells stably expressing hA2AAR (membrane preparation); gift from Dr. J. Wang, Biogen/IDEC
Method: (§1) The reference radioligand binding data were published before by our lab or were acquired as described before.
(§2) For the validation of MS binding assays, radioligand binding data that was published previously by our group was used. In the case that no in-house radioligand binding data was available, the concerning assays were performed following previously established protocols.

hA2AAR [4] = target: T2, hA2AAR; assay: Radioligand binding displacement assay; settings: newly acquired, read-out: K i ± SEM, Radioligand binding
Method: as §1, §2

hA2AAR [5] = target: T2, hA2AAR; assay: MS binding competition association assay (marker ligand ZM-241,385)
hA2AAR [6] = target: T2, hA2AAR; assay: MS binding displacement assay (marker ligand ZM-241,385); settings: 3 nM ZM-241,385 marker, read-out: K i ± SEM, MS binding
Method: (§3) Ligand displacement experiments were performed using nine concentrations of competing ligand.

hA1AR [7] = target: T1, hA1AR; settings: saturation on hA1AR; cited from earlier work
hA1AR [8] = target: T1, hA1AR; settings: saturation on CHO-hA1AR membranes, M/IS
Method: Dilutions were prepared with a HP D300 Digital Dispenser (Tecan Group, Männerdorf, Swiss) from DMSO stocks.

hA1AR [9] = target: T1, hA1AR; assay: biochemical; settings: K i ± SEM, Radioligand binding, overall (one-state) value, newly acquired
Method: as §1, §2

hA1AR [10] = target: T1, hA1AR; assay: biochemical; settings: K i ± SEM, MS binding, 6 nM DPCPX marker, overall (one-state) value
Method: as §3

hA1AR [11] = target: T1, hA1AR; assay: Radioligand binding competition association assay; set-up: expressed in transfected cells; host or cells: CHO cells stably expressing hA1AR (membrane preparation); gift from Prof; S. Hill, University of Nottingham; settings: newly acquired
Method: as §1, §2

[12] = competition association with 3 nM ZM-241,385, with internal standard
[13] = competition association with 3 nM ZM-241,385, without internal standard

T2 sequence (P29274 whole entry): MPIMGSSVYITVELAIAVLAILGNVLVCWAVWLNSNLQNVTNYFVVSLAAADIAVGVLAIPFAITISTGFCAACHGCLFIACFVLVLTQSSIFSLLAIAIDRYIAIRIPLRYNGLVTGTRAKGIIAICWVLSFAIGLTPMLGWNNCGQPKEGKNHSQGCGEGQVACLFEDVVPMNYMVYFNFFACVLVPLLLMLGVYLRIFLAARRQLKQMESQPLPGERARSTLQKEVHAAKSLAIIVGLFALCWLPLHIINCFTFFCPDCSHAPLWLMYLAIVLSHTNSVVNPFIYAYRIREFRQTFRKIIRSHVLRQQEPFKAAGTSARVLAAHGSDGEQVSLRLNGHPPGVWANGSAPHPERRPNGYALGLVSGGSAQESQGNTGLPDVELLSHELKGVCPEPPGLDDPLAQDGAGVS

In the case of `CCCn1c(=O)c2[nH]c(C3CCCC3)nc2n(CCCOC(=O)c2ccc(S(=O)(=O)F)cc2)c1=O` [FSCPX], the “k on ± SEM, Radioligand binding” value (hA1AR [1]) is listed as 3.7 ± 1.0 × 10^6 [29] M^−1 min^−1, the “shape of competition association curve” value (hA1AR [2]; hA1AR) is listed as “typical for slowly dissociating ligands” and the “displacement of the marker ligand DPCPX” value (hA1AR [2]; hA1AR, 250 nM FSCPX, after 120 min) is listed as “completely”. The “k on ± SEM, MS binding (M/IS)” value (hA1AR [2]; hA1AR, competition association with 6 nM DPCPX, with internal standard, apparent value for covalently binding FSCPX) was 0.7 ± 0.2 × 10^6 M^−1 min^−1 and the “k on ± SEM, MS binding (marker)” value (hA1AR [2]; hA1AR, competition association with 6 nM DPCPX, without internal standard, apparent value for FSCPX) was 0.7 ± 0.2 × 10^6 M^−1 min^−1.

In the case of `C#CCn1c(=O)c2c(nc(C=Cc3cccc(OC)c3)n2C)n(CCCO)c1=O` [MSX-2, 3-(3-Hydroxypropyl)-7-methyl-1-propargyl-8-(m-methoxystryryl)xanthine], the “k off ± SEM, Radioligand binding” value (hA2AAR [3]) is reported as 0.026 ± 0.004 min⁻¹, the “k on ± SEM, Radioligand binding” value (hA2AAR [3]) is reported as 2.4 ± 0.2 × 10^6 M^−1 min^-1 and the Ki (hA2AAR [4]) is reported as 5.7 ± 0.1 nM. For the same molecule, the “shape of competition association curve” value (hA2AAR [5]; 3 nM ZM-241,385, 90 nM MSX-2 or 15 nM LUF6632) was “typical for fast-dissociating ligands”, the “k off ± SEM, MS binding (M/IS)” value (hA2AAR [5]; [12]) was 0.027 ± 0.005 min⁻¹ and the “k on ± SEM, MS binding (M/IS)” value (hA2AAR [5]; [12]) was 5.4 ± 0.6 × 10^6 M^−1 min^-1. For the same molecule, the “k off ± SEM, MS binding (marker)” value (hA2AAR [5]; [13]) was 0.063 ± 0.022 min⁻¹, the “k on ± SEM, MS binding (marker)” value (hA2AAR [5]; [13]) was 9.3 ± 1.3 × 10^6 M^−1 min^-1 and the Ki (hA2AAR [6]) was 9 ± 0.3 nM.

In the case of `CCCn1c(=O)c2[nH]c(C3CCCC3)nc2n(CCC)c1=O` [DPCPX, 1,3-dipropyl-8-cyclopentyl-xanthine], the “B max, Radioligand binding” value (hA1AR [7]) is given as 14 ± 1 pmol/mg protein and 14 ± 1 [29] pmol/mg protein and the “B max, MS binding” value (hA1AR [8]) is given as 17.3 ± 0.3 pmol/mg protein.

For `Cn1c(=O)c2[nH]c(C3CCCC3)nc2n(C)c1=O` [8-CPT, 8-Cyclopentyltheophylline], the Ki (hA1AR [9]) was 31 ± 1 nM, the Ki (hA1AR [10]) was 43 ± 11 nM and the “shape of competition association curve” value (hA1AR [2]; hA1AR) was “typical for fast-dissociating ligands”. The koff (hA1AR [2]; read-out: k off ± SEM, MS binding (M/IS) (converted)) was 0.0233 s⁻¹, the koff (hA1AR [2]; read-out: k off ± SEM, MS binding (marker) (converted)) was 0.02 s⁻¹ and the kon (hA1AR [2]; read-out: k on ± SEM, MS binding (M/IS) (converted)) was 833000 M⁻¹ s⁻¹. For the same molecule, the kon (hA1AR [2]; read-out: k on ± SEM, MS binding (marker) (converted)) was 500000 M⁻¹ s⁻¹, the koff (hA1AR [11]; read-out: k off ± SEM, Radioligand binding (converted)) was 0.0183 s⁻¹ and the kon (hA1AR [11]; read-out: k on ± SEM, Radioligand binding (converted)) was 1e+06 M⁻¹ s⁻¹.
